Test results as given in US12662451B2, “Chemical compounds and uses thereof” (GLAXOSMITHKLINE INTELLECTUAL PROPERTY (NO.4) LIMITED, priority 2023, dated 2026).
Like-named read-outs stand apart in the source and are kept apart here.

Legend:
[1] = system: SW48 human colorectal cancer cells (MSI-H cancer cells); assay: SW48 cell viability, CellTiter-Glo, 120 hours (Example B); settings: for CC50: Homo sapiens
[2] = system: SW48 human colorectal cancer cells; assay: Calculated free drug potency in SW48 cell assay, corrected with media free fraction (Example C); assay type: cell-based; settings: for CC50: Homo sapiens, SW48, SW48 pCC50 corrected with measured free fraction in cell assay media
Procedure, shortened: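 Compound spiked at nominal 1 μM into cell assay medium and dialysed against PBS (100 mM sodium phosphate, 150 mM NaCl, pH 7.4) by rapid equilibrium dialysis, 4 h, 37 °C, shaking. Percent unbound from LC-MS/MS peak area ratios (240 min vs 0 min); cell assay concentrations corrected by this free fraction.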

[3] = molecular target: T1, recombinant full-length WRN protein (1-1432) (Homo sapiens, UniProt Q14191); assay: WRN unwinding activity, fluorogenic 384-well assay (Example A); assay type: biochemical; settings: WRN unwinding activity, 4 hr; Table 2; read-out: 4 hr UNW pIC50 (converted)
T1 construct: recombinant full-length WRN protein (1-1432)
Procedure, shortened: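 200 pM enzyme (2× stock) preincubated with compound 4 h at ambient temperature, then 200 μM ATP and 12 nM quenched TAMRA-labelled dsDNA (2× stocks) added for 60 min; EDTA-quenched. Buffer 25 mM Tris pH 8.0, 5 mM NaCl, 2 mM MgCl2. Fluorescence at 525/598 nm; pIC50 from four-parameter fit.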

[4] = Cell culture media unbound percentage and stability by rapid equilibrium dialysis (Example C); assay type: in vitro ADME; settings: bovine, cell assay medium (RPMI-1640 with 10% fetal bovine serum), pH 7.4, rapid equilibrium dialysis, 4 hours at 37° C., read-out: Cell Culture Media Binding (% unbound)
Procedure, shortened: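 Compound spiked into cell culture medium at nominal 1 μM and dialysed against PBS (100 mM sodium phosphate + 150 mM NaCl, pH 7.4) by rapid equilibrium dialysis, triplicate, 4 h at 37° C with shaking. LC-MS/MS peak area ratios gave percent unbound (receiver/donor) and percent stability (240 min vs 0 min).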

[5] = SW48, 120 h, read-out: SW48 pCC50, SW48 cell viability, 120 hours incubation (converted), Table 2
[6] = SW48, read-out: SW48 pCC50, measured potency from Example B, as repeated in Table 3 (converted)

T1 sequence (Q14191 whole entry): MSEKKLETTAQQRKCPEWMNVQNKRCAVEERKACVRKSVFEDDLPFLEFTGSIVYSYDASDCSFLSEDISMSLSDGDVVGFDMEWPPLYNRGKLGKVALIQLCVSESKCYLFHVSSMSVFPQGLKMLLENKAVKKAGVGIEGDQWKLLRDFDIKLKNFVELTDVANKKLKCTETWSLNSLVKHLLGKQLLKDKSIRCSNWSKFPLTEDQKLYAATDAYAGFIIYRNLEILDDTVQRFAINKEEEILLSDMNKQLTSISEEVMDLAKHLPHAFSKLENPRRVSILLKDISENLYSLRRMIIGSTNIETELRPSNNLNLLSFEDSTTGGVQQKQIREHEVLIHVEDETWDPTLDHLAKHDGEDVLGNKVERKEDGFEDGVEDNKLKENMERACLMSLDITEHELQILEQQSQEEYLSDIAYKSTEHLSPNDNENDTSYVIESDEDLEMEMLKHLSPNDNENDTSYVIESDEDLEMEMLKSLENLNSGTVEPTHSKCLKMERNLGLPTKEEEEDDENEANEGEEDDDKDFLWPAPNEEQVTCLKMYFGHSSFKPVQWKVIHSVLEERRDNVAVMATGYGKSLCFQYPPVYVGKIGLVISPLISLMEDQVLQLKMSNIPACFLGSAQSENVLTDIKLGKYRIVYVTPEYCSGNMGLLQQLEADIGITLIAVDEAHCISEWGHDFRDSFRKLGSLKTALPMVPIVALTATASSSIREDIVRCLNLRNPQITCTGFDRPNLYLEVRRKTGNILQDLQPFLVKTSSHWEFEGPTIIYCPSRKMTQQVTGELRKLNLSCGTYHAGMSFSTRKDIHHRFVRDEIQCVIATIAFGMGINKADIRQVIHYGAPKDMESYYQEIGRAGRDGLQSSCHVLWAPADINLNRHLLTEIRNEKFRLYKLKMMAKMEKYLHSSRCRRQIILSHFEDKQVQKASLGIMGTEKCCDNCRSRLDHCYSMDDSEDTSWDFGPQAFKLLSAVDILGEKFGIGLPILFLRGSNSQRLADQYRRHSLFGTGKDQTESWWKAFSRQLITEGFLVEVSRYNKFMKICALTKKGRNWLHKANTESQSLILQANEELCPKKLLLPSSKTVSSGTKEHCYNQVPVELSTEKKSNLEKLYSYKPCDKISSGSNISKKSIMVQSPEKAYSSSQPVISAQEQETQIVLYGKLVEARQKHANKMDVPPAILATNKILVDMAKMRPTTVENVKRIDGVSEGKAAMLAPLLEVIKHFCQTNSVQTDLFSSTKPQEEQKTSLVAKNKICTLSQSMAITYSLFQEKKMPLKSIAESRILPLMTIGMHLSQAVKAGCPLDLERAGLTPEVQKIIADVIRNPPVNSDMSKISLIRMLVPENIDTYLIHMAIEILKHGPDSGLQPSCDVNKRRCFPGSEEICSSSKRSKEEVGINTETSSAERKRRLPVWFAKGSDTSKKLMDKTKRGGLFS

Compound | CC50 [1, 5] [nM] | CC50 [1, 6] [nM] | CC50 [2] [nM] | IC50 [3] [nM] | fraction unbound at 4 h, 1 µM [4] | SW48 pCC50 ([1]; SW48 cell viability, 120 hours incubation, Table 2) | SW48 pCC50 ([1]; measured potency from Example B, as repeated in Table 3) | Free Drug SW48 pCC50 ([2]; SW48 pCC50 corrected with measured free fraction in cell assay media)
Cc1nc2cc(S(=O)(=O)N(C)c3ccc([C@H]4C[C@@H](OC(C)C)C[C@@H](C(=O)Nc5ccc(C(F)(F)F)cc5F)[C@@H]4C(=O)O)cc3)ccc2n1C (stereo in doubt) [Example 311, rel-(1R,2R,4R,6S)-2-((2-fluoro-4-(trifluoromethyl)phenyl)carbamoyl)-4-isopropoxy-6-(4-((N,1,2-trimethyl-1H-benzo[d]imidazole)-5-sulfonamido)phenyl)cyclohexane-1-carboxylic acid] | 251 | 251 | 21.4 | 2.51 | 0.0856 | – | – | –
COC12CC(CO[C@@H]3C[C@H](c4ccc(N(C)S(=O)(=O)c5ccc6c(c5)nc(C)n6C)cc4)[C@@H](C(=O)O)[C@H](C(=O)Nc4ccc(C(F)(F)F)cc4F)C3)(C1)C2 (relative stereo) [Example 332, rel-(1R,2R,4R,6S)-2-((2-fluoro-4-(trifluoromethyl)phenyl)carbamoyl)-4-((3-methoxybicyclo[1.1.1]pentan-1-yl)methoxy)-6-(4-((N,1,2-trimethyl-1H-benzo[d]imidazole)-5-sulfonamido)phenyl)cyclohexane-1-carboxylic acid] | 100 | 100 | 12.3 | 3.98 | 0.122 | – | – | –
COCCO[C@@H]1C[C@H](c2ccc(N(C)S(=O)(=O)c3ccc4c(c3)nc(C)n4C)cc2)[C@@H](C(=O)O)[C@H](C(=O)Nc2ccc(C(F)(F)F)cc2F)C1 (stereo in doubt) [Example 316, rel-(1R,2R,4R,6S)-2-((2-fluoro-4-(trifluoromethyl)phenyl)carbamoyl)-4-(2-methoxyethoxy)-6-(4-((N,1,2-trimethyl-1H-benzo[d]imidazole)-5-sulfonamido)phenyl)cyclohexane-1-carboxylic acid] | 158 | 158 | 30.2 | 1.58 | 0.19 | – | – | –
Cc1nc2cc(S(=O)(=O)N(C)c3ccc([C@H]4C[C@@H](OCC5CCC5)C[C@@H](C(=O)Nc5ccc(C(F)(F)F)cc5F)[C@@H]4C(=O)O)cc3)ccc2n1C (stereo in doubt) [Example 154, rel-(1R,2R,4R,6S)-4-(cyclobutylmethoxy)-2-((2-fluoro-4-(trifluoromethyl)phenyl)carbamoyl)-6-(4-((N,1,2-trimethyl-1H-benzo[d]imidazole)-5-sulfonamido)phenyl)cyclohexane-1-carboxylic acid] | 398 | 398 | 5.01 | 3.98 | 0.0127 | – | – | –
Cc1nc2cc(S(=O)(=O)N(C)c3ccc([C@H]4CCC[C@@H](C(=O)Nc5ccc(C(F)(F)F)cc5F)[C@@H]4C(=O)O)cc3)ncc2n1C [Example 125, (1R,2R,6S)-2-((2-fluoro-4-(trifluoromethyl)phenyl)carbamoyl)-6-(4-((N,2,3-trimethyl-3H-imidazo[4,5-c]pyridine)-6-sulfonamido)phenyl)cyclohexane-1-carboxylic acid] | 1580 | 1580 | 69.2 | 2 | 0.0433 | – | – | –
Cc1nc2cc(S(=O)(=O)N(C)c3ccc([C@H]4C[C@@H](OCC(F)F)C[C@@H](C(=O)Nc5ccc(C(F)(F)F)cc5F)[C@@H]4C(=O)O)cc3)ccc2n1C (relative stereo) [Example 159, rel-(1R,2R,4R,6S)-4-(2,2-difluoroethoxy)-2-((2-fluoro-4-(trifluoromethyl)phenyl)carbamoyl)-6-(4-((N,1,2-trimethyl-1H-benzo[d]imidazole)-5-sulfonamido)phenyl)cyclohexane-1-carboxylic acid] | 200 | 200 | 20 | 2.51 | 0.0991 | – | – | –
Cc1nc2cc(S(=O)(=O)N(C)c3ccc([C@H]4C[C@H]5COC[C@H]5[C@@H](C(=O)Nc5ccc(C(F)(F)F)cc5F)[C@@H]4C(=O)O)cc3)ccc2n1C (stereo in doubt) [Example 392, rel-(3aR,4R,5R,6S,7aR)-4-((2-fluoro-4-(trifluoromethyl)phenyl)carbamoyl)-6-(4-((N,1,2-trimethyl-1H-benzo[d]imidazole)-5-sulfonamido)phenyl)octahydroisobenzofuran-5-carboxylic acid] | 251 | 251 | 25.1 | 1.58 | 0.0993 | – | – | –
CCO[C@@H]1C[C@H](c2ccc(NS(=O)(=O)c3ccc4c(c3)nc(C)n4C)cc2)[C@@H](C(=O)O)[C@H](C(=O)Nc2ccc(C(F)(F)F)cc2F)C1 [Example 288, (1R,2S,4R,6R)-2-(4-((1,2-dimethyl-1H-benzo[d]imidazole)-5-sulfonamido)phenyl)-4-ethoxy-6-((2-fluoro-4-(trifluoromethyl)phenyl)carbamoyl)cyclohexane-1-carboxylic acid] | 1000 | 1000 | 21.4 | 5.01 | 0.0214 | – | – | –
Cc1nc2cc(S(=O)(=O)N(C)c3ccc([C@H]4CCC[C@@H](C(=O)Nc5ccc(C(F)(F)F)cc5F)[C@@H]4C(=O)O)cc3)ccc2n1CCN(C)C [Example 278, (1R,2S,6R)-2-(4-((1-(2-(dimethylamino)ethyl)-N,2-dimethyl-1H-benzo[d]imidazole)-5-sulfonamido)phenyl)-6-((2-fluoro-4-(trifluoromethyl)phenyl)carbamoyl)cyclohexane-1-carboxylic acid] | 126 | 126 | 26.3 | 0.631 | 0.208 | – | – | –
CO[C@@H]1C[C@H](C(=O)Nc2ccc(C(F)(F)F)cc2F)[C@@H](C(=O)O)[C@H](c2ccc(N(C)S(=O)(=O)c3ccc4c(c3)nc(C)n4C)cc2)C1 (relative stereo) [Example 148, rel-(1R,2R,4R,6S)-2-((2-fluoro-4-(trifluoromethyl)phenyl)carbamoyl)-4-methoxy-6-(4-((N,1,2-trimethyl-1H-benzo[d]imidazole)-5-sulfonamido)phenyl)cyclohexane-1-carboxylic acid] | 200 | 200 | 25.7 | 1.26 | 0.129 | – | – | –
CCO[C@@H]1C[C@H](c2ccc(N(C)S(=O)(=O)c3ccc4c(c3)nc(N(C)C)n4C)cc2)[C@@H](C(=O)O)[C@H](C(=O)Nc2ccc(C(F)(F)F)cc2F)C1 [Example 139, (1R,2S,4R,6R)-2-(4-((2-(dimethylamino)-N,1-dimethyl-1H-benzo[d]imidazole)-5-sulfonamido)phenyl)-4-ethoxy-6-((2-fluoro-4-(trifluoromethyl)phenyl)carbamoyl)cyclohexane-1-carboxylic acid] | 100 | 100 | 5.13 | 1.58 | 0.0518 | – | – | –
CN(c1ccc([C@H]2CCC[C@@H](C(=O)Nc3ccc(C(F)(F)F)cc3F)[C@@H]2C(=O)O)cc1)S(=O)(=O)c1ccc2c(c1)ncn2C (single isomer, unassigned) [Example 88] | 398 | 398 | 11.7 | 2.51 | 0.0297 | – | – | –
CN(c1ccc([C@H]2CCC[C@@H](C(=O)Nc3ccc(C(F)(F)F)cc3F)[C@@H]2C(=O)O)cc1)S(=O)(=O)c1ccccc1 [Example 109, (1R,2R,6S)-2-((2-fluoro-4-(trifluoromethyl)phenyl)carbamoyl)-6-(4-(N-methylphenylsulfonamido)phenyl)cyclohexane-1-carboxylic acid] | 1260 | 1260 | 105 | 1 | 0.0829 | – | – | –
Cc1nc2cc(S(=O)(=O)N(C)c3ccc([C@H]4C[C@@H]5OCC[C@@H]5[C@@H](C(=O)Nc5ccc(C(F)(F)F)cc5F)[C@@H]4C(=O)O)cc3)ccc2n1C (single isomer, unassigned) [Example 157] | – | – | – | 2.51 | 0.242 | 6.9 | 6.9 | 7.50
Cc1nc2cc(S(=O)(=O)N(C)c3ccc([C@H]4C[C@@H](N5CCC[C@H](F)C5)C[C@@H](C(=O)Nc5ccc(C(F)(F)F)cc5F)[C@@H]4C(=O)O)cc3)ccc2n1C (stereo in doubt) [Example 350, rel-(1R*,2R*,4R*,6S*)-2-((2-fluoro-4-(trifluoromethyl)phenyl)carbamoyl)-4-((S)-3-fluoropiperidin-1-yl)-6-(4-((, 1,2-trimethyl-1H-benzo[d]imidazole)-5-sulfonamido)phenyl)cyclohexane-1-carboxylic acid] | 63.1 | 63.1 | 13.8 | 1.58 | 0.218 | – | – | –
